Measured values: the supplement of paper PMC11003180

Legend:
Test in all cases: drug sensitivity score (DSS) from 5-dose viability curve (DSS (area-based score, 0 = no response)); higher = more sensitive (stronger viability inhibition); extreme values may be limits of the assay
[1] = system: MDCK p60AmotL2-inducible + doxycycline (p60AmotL2 expressing); settings: doxycycline: 10 ng/mL; 72 h
How it was run: (§1)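 Parental MDCK cells and MDCK cells with a doxycycline-inducible transgene were both grown with doxycycline at 10 ng/mL in the medium before plating, then dispensed at 2000 cells/well into 384-well plates pre-spotted with an oncology library of 528 drugs at five doses (1-10,000 nM). After 72 h at 37 °C, CellTiter-Glo luminescence was recorded and scaled on each plate between vehicle and positive controls. This scaled signal served as the viability readout, and drug sensitivity scores were derived from dose-response curve fits in the Breeze pipeline.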

[2] = system: MDCK wild-type + doxycycline; settings: doxycycline: 10 ng/mL; 72 h
How it was run: as §1

[3] = system: MDCK wild-type - doxycycline; settings: doxycycline: none; 72 h
How it was run: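 Parental MDCK cells without doxycycline were dispensed at 2000 cells/well onto pre-spotted 384-well plates. The plates held an oncology library of 528 drugs at five doses (1-10,000 nM) and were incubated 72 h at 37 °C. Viability was read as CellTiter-Glo luminescence and scaled per plate between vehicle and positive controls. Drug sensitivity scores came from dose-response curve fits in the Breeze pipeline.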

SMILES | drug sensitivity score [1] | drug sensitivity score [2] | drug sensitivity score [3]
Nc1cc(F)ccc1NC(=O)/C=C/c1cnn(C/C=C/c2ccccc2)c1 [RGFP966] | 1 | 0 | 0
COC(=O)c1ccc([C@H]2c3[nH]c4ccccc4c3C[C@H](C(=O)OC)N2C(=O)CCl)cc1 [RSL3] | 0 | 0 | 0
Cc1cnc(NC(=O)Nc2cc(Br)c(C)cc2OC[C@@H]2CNCCO2)cn1 [Rabusertib] | 0 | 0 | 0
Cc1cn(-c2cc(NC(=O)c3ccc(C)c(Nc4nccc(-c5cnccn5)n4)c3)cc(C(F)(F)F)c2)cn1 [Radotinib] | 0 | 0 | 0
CC(C)(C)Cn1c(N)nc2ccc(-c3[nH]c(C(C)(C)C)nc3-c3ccc(F)cc3)nc21 [Ralimetinib] | 4.4 | 3.5 | 0
O=C(c1ccc(OCCN2CCCCC2)cc1)c1c(-c2ccc(O)cc2)sc2cc(O)ccc12 [Raloxifene] | 6.1 | 5.2 | 5.2
Cc1nc(=O)c2cc(CN(C)c3ccc(C(=O)N[C@@H](CCC(=O)O)C(=O)O)s3)ccc2[nH]1 [Raltitrexed] | 5 | 3.3 | 3
Cn1nccc1Nc1nccc(-c2ccn([C@H](CO)c3ccc(Cl)c(F)c3)c(=O)c2)n1 [Ravoxertinib] | 0.2 | 0 | 0
CNC(=O)c1cc(Oc2ccc(NC(=O)Nc3ccc(Cl)c(C(F)(F)F)c3)c(F)c2)ccn1 [Regorafenib] | 5.6 | 3.2 | 3.2
CCOC(=O)C1=CCCC[C@H]1S(=O)(=O)Nc1ccc(F)cc1Cl [Resatorvid] | 0 | 0 | 0
CCOCc1nc2c(N)nc3ccccc3c2n1CC(C)(C)O [Resiquimod] | 0 | 0 | 0
CN(C)Cc1ccc(S(=O)(=O)n2ccc(/C=C/C(=O)NO)c2)cc1 [Resminostat] | 10.4 | 8.8 | 5
CN(C)C(=O)c1cc2cnc(Nc3ccc(N4CCNCC4)cn3)nc2n1C1CCCC1 [Ribociclib] | 1.6 | 0.8 | 0
CO[C@H]1C[C@@H]2CC[C@@H](C)[C@@](O)(O2)C(=O)C(=O)N2CCCC[C@H]2C(=O)O[C@H]([C@H](C)C[C@@H]2CC[C@@H](OP(C)(C)=O)[C@H](OC)C2)CC(=O)[C@H](C)/C=C(\C)[C@@H](O)[C@@H](OC)C(=O)[C@H](C)C[C@H](C)/C=C/C=C/C=C/1C [Ridaforolimus] | 9.8 | 0.6 | 0
COc1cc(OC)c(/C=C/S(=O)(=O)Cc2ccc(OC)c(NCC(=O)O)c2)c(OC)c1 [Rigosertib] | 26.8 | 26.5 | 24
C[C@H]1CNCCCN1S(=O)(=O)c1cccc2cncc(F)c12 [Ripasudil] | 0 | 0 | 0
C=CC(=O)Nc1cccc(Nc2nc(Nc3ccc(N4CCN(C(C)=O)CC4)cc3OC)ncc2C(F)(F)F)c1 [Rociletinib] | 10.4 | 6.7 | 6.9
O=C(CCCCCCNC(=O)c1cnc(N(c2ccccc2)c2ccccc2)nc1)NO [Rocilinostat] | 7.2 | 4.9 | 4.5
C/C=C1\NC(=O)[C@H]2CSSCC/C=C/[C@H](CC(=O)N[C@H](C(C)C)C(=O)N2)OC(=O)[C@H](C(C)C)NC1=O [Romidepsin] | 24.9 | 19.7 | 18.1
Cc1nc(C(=O)NCC(=O)O)c(O)c2ccc(Oc3ccccc3)cc12 [Roxadustat] | 0 | 0 | 0
CN(C)C[C@@H]1CCn2cc(c3ccccc32)C2=C(C(=O)NC2=O)c2cn(c3ccccc23)CCO1 [Ruboxistaurin] | 5.8 | 5.5 | 5.8
CNCc1ccc(-c2[nH]c3cc(F)cc4c3c2CCNC4=O)cc1 [Rucaparib] | 0 | 0 | 0

SMILES | drug sensitivity score [1] | drug sensitivity score [2] | drug sensitivity score [3]
N#CC[C@H](C1CCCC1)n1cc(-c2ncnc3[nH]ccc23)cn1 [Ruxolitinib] | 0 | 0 | 0
CC(C)N(CCCNC(=O)Nc1ccc(C(C)(C)C)cc1)C[C@H]1O[C@@H](n2cc(Br)c3c(N)ncnc32)[C@H](O)[C@@H]1O [SGC0946] | 0 | 0 | 0
COc1ccc(CCc2nc3cc(-c4c(C)noc4C)ccc3n2C[C@H](C)N2CCOCC2)cc1Cl [SGC-CBP30] | 4.3 | 2.7 | 0
CN1CCC(CNc2ccc3ncc(-c4cccc(OC(F)(F)F)c4)n3n2)CC1 [SGI-1776] | 7.5 | 6.3 | 6.6
CN(CC(=O)N(Cc1ccc(C2CCCCC2)cc1)c1ccc(C(=O)O)cc1)S(=O)(=O)c1c(F)c(F)c(F)c(F)c1F [SH-4-54] | 3.7 | 3.9 | 5.1
CCc1c2c(nc3ccc(O)cc13)-c1cc3c(c(=O)n1C2)COC(=O)[C@]3(O)CC [SN-38] | 24.8 | 23.3 | 21.1
CC(C)(C)c1cnc(CSc2cnc(NC(=O)C3CCNCC3)s2)o1 [SNS-032] | 19.1 | 17.8 | 16.3
Cc1cc2c(C(=O)NC[C@H](C)c3ccccc3)c(O)c(O)cc2c(O)c1-c1c(C)cc2c(C(=O)NC[C@H](C)c3ccccc3)c(O)c(O)cc2c1O [Sabutoclax] | 23 | 19.3 | 13.9
CC[C@@H](C(=O)[C@@H](C)[C@@H](O)[C@H](C)[C@@H]1O[C@@H]([C@@H](CC)C(=O)O)CC[C@@H]1C)[C@H]1O[C@]2(C=C[C@@H](O)[C@]3(CC[C@@](C)([C@H]4CC[C@](O)(CC)[C@H](C)O4)O3)O2)[C@H](C)C[C@@H]1C [Salinomycin] | 18.7 | 0.9 | 0.4
CC(C)n1nc(-c2ccc3oc(N)nc3c2)c2c(N)ncnc21 [Sapanisertib] | 13.4 | 9.8 | 8.1
CNC(=O)CN1CCC(Oc2cc3c(Nc4cccc(Cl)c4F)ncnc3cc2OC)CC1 [Sapitinib] | 12.9 | 4.5 | 1.2
CN1CCN(CCOc2cc(OC3CCOCC3)c3c(Nc4c(Cl)ccc5c4OCO5)ncnc3c2)CC1 [Saracatinib] | 19.5 | 12.6 | 12.6
CC1=C2C[C@H]3[C@@H](CC[C@@H]4C[C@H](NS(C)(=O)=O)CC[C@@]43C)[C@@H]2CC[C@@]2(C1)O[C@@H]1C[C@H](C)CN[C@H]1[C@H]2C [Saridegib] | 0.8 | 0 | 0
CC[C@H](CO)Nc1nc(NCc2ccccc2)c2ncn(C(C)C)c2n1 [Seliciclib] | 2.4 | 1.2 | 0
O=C(/C=C\n1cnc(-c2cc(C(F)(F)F)cc(C(F)(F)F)c2)n1)NNc1cnccn1 [Selinexor] | 16.7 | 16.4 | 15.1
Cc1cc(F)c(C(=O)Nc2cccc(-c3nncn3C(C)C)n2)cc1-n1cnc(C2CC2)c1 [Selonsertib] | 0 | 0 | 0
Cn1cnc2c(F)c(Nc3ccc(Br)cc3Cl)c(C(=O)NOCCO)cc21 [Selumetinib] | 10.1 | 4.1 | 0.9
CN1CCN(C(=O)c2ccc3cc(CCNc4ncnc5ccc(C#N)cc45)ccc3c2)CC1 [Senexin B] | 0.6 | 0.1 | 0
COCC[n+]1c2c(n(Cc3cnccn3)c1C)C(=O)c1ccccc1C2=O [Sepantronium bromide] | 34.3 | 30.1 | 26.6
Nc1nc2cc(-c3ccc4ncc(C(=O)N5CCOCC5)n4c3)ccc2o1 [Serabelisib] | 1.3 | 0.1 | 0
O=C(O)c1ccc2c(c1)nc(Nc1cccc(Cl)c1)c1ccncc12 [Silmitasertib] | 1.6 | 1.4 | 0
